Consider one molecule from ChEMBL document CHEMBL2069196, “Synthesis and evaluation of novel 4-[(3H,3aH,6aH)-3-phenyl)-4,6-dioxo-2-phenyldihydro-2H-pyrrolo[3,4-d]isoxazol-5(3H,6H,6aH)-yl]benzoic acid derivatives as potent acetylcholinesterase inhibitors and anti-amnestic agents” (Bioorg Med Chem, 2012).

The subject of test [1] is Mus musculus. Nature of the test: Antiamnesic activity in mouse assessed as inhibition of scopolamine-induced escape latency time at 5 mg/kg, ip measured on day 1 by Morris water maze test (reference value: 89.7 +/- 3.8 secs). In kind it is functional. To be noted: route intraperitoneal.
The next test concerns the target T1, Acetylcholinesterase (Rattus norvegicus, UniProt P37136).
T1 sequence (P37136 whole entry): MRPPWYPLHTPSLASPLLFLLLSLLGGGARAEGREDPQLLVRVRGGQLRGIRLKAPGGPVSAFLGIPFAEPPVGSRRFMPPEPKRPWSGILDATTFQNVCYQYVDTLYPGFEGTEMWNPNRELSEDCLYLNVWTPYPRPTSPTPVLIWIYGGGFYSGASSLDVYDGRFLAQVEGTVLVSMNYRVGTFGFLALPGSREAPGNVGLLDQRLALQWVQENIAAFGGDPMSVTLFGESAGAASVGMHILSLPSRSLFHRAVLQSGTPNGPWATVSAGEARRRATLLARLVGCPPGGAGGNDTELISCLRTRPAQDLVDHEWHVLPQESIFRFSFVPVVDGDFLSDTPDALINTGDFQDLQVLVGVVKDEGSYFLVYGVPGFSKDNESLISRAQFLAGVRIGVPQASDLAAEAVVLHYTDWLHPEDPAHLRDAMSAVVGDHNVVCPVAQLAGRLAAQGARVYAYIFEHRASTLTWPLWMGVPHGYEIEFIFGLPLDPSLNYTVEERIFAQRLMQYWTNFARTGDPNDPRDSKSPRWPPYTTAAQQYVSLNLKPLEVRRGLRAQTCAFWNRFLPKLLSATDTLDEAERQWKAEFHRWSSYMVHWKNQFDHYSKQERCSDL
Nature of the test: Inhibition of AChE activity in rat brain homogenate using acetylthiocholine as substrate by Ellman's method. It counts as tissue-based.

Test [2] has as its system Mus musculus. Nature of the test: Antiamnesic activity in mouse assessed as inhibition of scopolamine-induced escape latency time at 10 mg/kg, ip measured on day 4 by Morris water maze test (reference value: 78.7 +/- 5.7 secs). In kind it is functional. The following applies: route intraperitoneal.
Test [3] has as its system Mus musculus. Nature of the test: Antiamnesic activity in scopolamine-induced amnesia mouse model assessed as increase in time spent in target quadrant at 10 mg/kg, ip measured on day 5 by Morris water maze test. On the set-up: dose 10 mg/kg. In kind it is functional, organism-based.
Test [4] relates to Mus musculus. The experiment in a line: Antiamnesic activity in mouse assessed as inhibition of scopolamine-induced escape latency time at 5 mg/kg, ip measured on day 4 by Morris water maze test (reference value: 78.7 +/- 5.7 secs). It counts as functional. To be noted: route intraperitoneal.
Test [5] concerns Mus musculus. The experiment in a line: Antiamnesic activity in scopolamine-induced amnesia mouse model assessed as increase in time spent in target quadrant at 5 mg/kg, ip measured on day 5 by Morris water maze test. In kind it is functional, organism-based. On the set-up: dose 5 mg/kg.
In test [6] the test system is Mus musculus. The experiment in a line: Antiamnesic activity in mouse assessed as inhibition of scopolamine-induced escape latency time at 2 mg/kg, ip measured on day 1 by Morris water maze test (reference value: 89.7 +/- 3.8 secs). In kind it is functional. To be noted: route intraperitoneal.
The subject of test [7] is Mus musculus. Nature of the test: Antiamnesic activity in mouse assessed as inhibition of scopolamine-induced escape latency time at 2 mg/kg, ip measured on day 4 by Morris water maze test (reference value: 78.7 +/- 5.7 secs). It counts as functional. The following applies: route intraperitoneal.
For another test, the target named is Butyrylcholinesterase (Rattus norvegicus, UniProt Q9JKC1). Nature of the test: Inhibition of BuChE activity in rat plasma using […] as substrate by Ellman's method. It counts as cell-free.
For test [8], the system named is Mus musculus. The experiment in a line: Antiamnesic activity in mouse assessed as inhibition of scopolamine-induced escape latency time at 10 mg/kg, ip measured on day 1 by Morris water maze test (reference value: 89.7 +/- 3.8 secs). In kind it is functional. To be noted: route intraperitoneal.

The source made the active and inactive calls. The rule behind the calls is not given here.

Sequence of Butyrylcholinesterase (Q9JKC1 whole entry): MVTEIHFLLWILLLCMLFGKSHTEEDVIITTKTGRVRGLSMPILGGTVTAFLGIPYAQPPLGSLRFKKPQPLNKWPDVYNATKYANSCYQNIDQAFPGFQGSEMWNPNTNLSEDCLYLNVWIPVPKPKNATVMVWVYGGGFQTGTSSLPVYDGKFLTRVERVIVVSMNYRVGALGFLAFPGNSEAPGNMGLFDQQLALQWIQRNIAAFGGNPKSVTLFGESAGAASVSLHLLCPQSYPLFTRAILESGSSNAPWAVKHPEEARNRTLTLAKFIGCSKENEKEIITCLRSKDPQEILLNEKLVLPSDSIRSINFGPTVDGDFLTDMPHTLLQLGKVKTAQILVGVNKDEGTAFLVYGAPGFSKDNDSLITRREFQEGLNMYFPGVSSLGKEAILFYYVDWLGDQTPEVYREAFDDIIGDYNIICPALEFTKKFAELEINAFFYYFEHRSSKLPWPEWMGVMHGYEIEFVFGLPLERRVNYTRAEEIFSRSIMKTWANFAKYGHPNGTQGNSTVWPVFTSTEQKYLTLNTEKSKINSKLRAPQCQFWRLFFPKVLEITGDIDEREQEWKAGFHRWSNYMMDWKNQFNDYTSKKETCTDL

In the case of `COc1ccc([C@H]2[C@H]3C(=O)N(c4ccc(C(=O)O)cc4)C(=O)[C@H]3ON2c2ccc(C)cc2)cc1` (relative stereo), the Time in the test on Mus musculus [1] was found to be 85.2 s; in the test on Mus musculus [2], 49.1 s; in the test with Mus musculus [4], 69.5 s; in the test on Mus musculus [6], 83.7 s; in the test on Mus musculus [7], 74.8 s; in the test on Mus musculus [8], 81.2 s. For the same molecule, the values for the IC50 against Acetylcholinesterase and on Butyrylcholinesterase were 17.5 nM and 15.3 µM, respectively. In addition, the outcome in the test on Mus musculus [3] and with Mus musculus [5] was Active.
